# In PMC7450046, “Making of water soluble curcumin to potentiate conventional antimicrobials by inducing apoptosis-like phenomena among drug-resistant bacteria” (Scientific Reports, 2020):
# Where two headings read alike, the source gives them in different places.
# Legend:
# [1] = system: Klebsiella pneumoniae (10,825/2019); assay: MIC/MBC, broth micro-dilution; format: cell-based; settings: for MIC: 18 h
# Description: (§1) The minimum inhibitory concentration of sCur was determined by the broth microdilution method as described earlier with minor modifications.
# (§2) Briefly, Staphylococcus aureus, Staphylococcus epidermidis, Klebsiella pneumoniae, Escherichia coli, and Pseudomonas aeruginosa were grown in 10 ml BHI broth aerobically for 18 h. Bacterial culture (500 µl) was then diluted to 1.5 ml fresh BHI broth. […] The stock was diluted in a series of two-fold dilutions ranging from 0.5 to 512 µg/ml in sterile BHI broth in microtiter wells. Each well of the 96-well microtiter plate was then inoculated with 190 µl of standardized cell suspension (10^5 CFU/ml) and incubated at 37 °C for next 18 h along with the 20 µl sCur suspension. The MIC was defined as the lowest concentration of sCur at which no obvious growth was observed.
# [2] = system: Pseudomonas aeruginosa (2,412/2019); assay: MIC/MBC, broth micro-dilution; format: cell-based; settings: for MIC: 18 h
# Description: as §1, §2
# [3] = system: Escherichia coli (507/2019); assay: MIC/MBC, broth micro-dilution; format: cell-based; settings: for MIC: 18 h
# Description: as §1, §2
# [4] = system: Staphylococcus aureus (MRSA, 2,862/2019); assay: MIC/MBC, broth micro-dilution; format: cell-based; settings: for MIC: 18 h
# Description: as §1, §2
# [5] = system: Gram-positive and Gram-negative MDR isolates; assay: MIC, broth micro-dilution, summary for MDR isolates; format: cell-based
# Description: as §1, §2
# [6] = system: Staphylococcus epidermidis (ATCC35984); assay: MIC/MBC, broth micro-dilution; format: cell-based; settings: for MIC: ATCC35984, 18 h
# Description: as §1
# (§3) Briefly, Staphylococcus aureus, Staphylococcus epidermidis, Klebsiella pneumoniae, Escherichia coli, and Pseudomonas aeruginosa were grown in 10 ml BHI broth aerobically for 18 h. Bacterial culture (500 µl) was then diluted to 1.5 ml fresh BHI broth. The sCur stock solution (1,024 µg/ml) was used for the study. The stock was diluted in a series of two-fold dilutions ranging from 0.5 to 512 µg/ml in sterile BHI broth in microtiter wells. Each well of the 96-well microtiter plate was then inoculated with 190 µl of standardized cell suspension (10^5 CFU/ml) and incubated at 37 °C for next 18 h along with the 20 µl sCur suspension. The MIC was defined as the lowest concentration of sCur at which no obvious growth was observed. Positive controls were having either ciprofloxacin or meropenem (for gram positive and gram negative respectively) while the sterile broth served as negative control and all the experiments were performed in triplicate.
# [7] = system: Escherichia coli (ATCC25922); assay: MIC/MBC, broth micro-dilution; format: cell-based; settings: for MIC: ATCC25922, 18 h
# Description: as §1, §3
# [8] = system: Klebsiella pneumoniae (ATCC700603); assay: MIC/MBC, broth micro-dilution; format: cell-based; settings: for MIC: ATCC700603, 18 h
# Description: as §1, §3
# [9] = system: Pseudomonas aeruginosa (ATCC25619); assay: MIC/MBC, broth micro-dilution; format: cell-based; settings: for MIC: ATCC25619, 18 h
# Description: as §1, §3
# [10] = system: Staphylococcus aureus (ATCC29213); assay: MIC/MBC, broth micro-dilution; format: cell-based; settings: for MIC: ATCC29213, 18 h
# Description: as §1, §3
# Klebsiella pneumoniae [11] = assay: DiSC3-5 flow cytometry, membrane depolarization; settings: 256 µg/ml
# Description: (§6) The membrane potential-sensitive dye DiSC3-5 was used to measure plasma membrane depolarization in bacterial membranes as described earlier with modifications[44]. The isolates were cultured in BHI broth overnight with subsequent dilution to adjust the absorbance to 0.05 at λmax 600. […] This was further incubated for 20 min with 1 µM DiSC3-5. Negative control was without any drug while native curcumin treated bacterial lane served as positive control. The fluorescence was measured employing Synergy H1 Hybrid Multi-Mode Reader with excitation at 622 nm and emission at 670 nm. Besides, the percentages of bacterial cells showing fluorescence were measured using the flow cytometry (C6 BD Accuri, Becton–Dickinson, San Jose, CA, USA).
# Klebsiella pneumoniae [12] = assay: DPH flow cytometry, membrane dynamics; format: cell-based; settings: 256 µg/ml
# [13] = system: Klebsiella pneumoniae (10,825/2019); assay: Modified MIC in combination, checkerboard titration; format: cell-based
# Description: (§4) Serial dilutions of with these antibiotics were mixed in cation-adjusted Muller Hinton broth. The inoculum was prepared from the overnight grown colonies on MHA. The final bacterial concentration after inoculation was […].
# [14] = system: Pseudomonas aeruginosa (2,412/2019); assay: as above; format: cell-based
# Description: as §4
# [15] = system: Escherichia coli (507/2019); assay: as above; format: cell-based
# Description: as §4
# Klebsiella pneumoniae [16] = assay: DCFH-DA flow cytometry, ROS production; format: cell-based; settings: single agents, time not stated; untreated 0.1%
# [17] = system: Staphylococcus aureus (MRSA, 2,862/2019); assay: microbe, parasite or virus in culture
# Description: as §4
# [18] = system: multi-drug resistant K. pneumoniae and S. aureus isolates; assay: DiSC3-5 steady-state fluorimetry, membrane depolarization; format: cell-based, Klebsiella pneumoniae and Staphylococcus aureus; settings: 8 µg/ml sCur with 16 µg/ml vancomycin, 120 min; vancomycin alone; untreated 18.67 ± 2.082
# Description: as §6
# MRSA clinical isolate = assay: DPH steady-state fluorimetry, membrane dynamics; format: cell-based, Staphylococcus aureus; settings: vancomycin alone; 8 µg/ml sCur with 16 µg/ml vancomycin 60 min; untreated 89.86 ± 2.07
# Description: (§5) We utilized the previously described method. Multidrug-resistant clinical isolates of Staphylococcus aureus, Staphylococcus epidermidis, Klebsiella pneumoniae, Escherichia coli, and Pseudomonas aeruginosa were treated with MIC concentration of sCur, vancomycin, and in combination (here data of only Klebsiella pneumoniae is shown). We incubated the treated cells for 120 min with shaking (100 rpm) at 37 °C, with subsequent harvesting. The pellet was re-suspended and re-pelleted. We fixed the pellet with 0.4% paraformaldehyde with subsequent resuspension in PBS. We later on incubated the re-suspended cells with 0.5 mM 1, 6-diphenyl-1, 3, 5-hexatriene (DPH) at 37 °C for 60 min, pelleted and washed thrice with PBS. The fluorescence intensity was monitored spectrophotometrically employing Synergy H1 Hybrid Multi-Mode Reader at 350 nm (excitation) and 425 nm (emission).
# [19] = system: S. aureus and K. pneumoniae cells; assay: Hydroxyl radical estimation with HPF dye; format: cell-based, Staphylococcus aureus and Klebsiella pneumoniae; settings: one hour treatment, compared to untreated cells
# Description: The fluorescent reporter dye 3′-(p-hydroxyphenyl) fluorescein (HPF) was used for […] free radical detection as described previously. Overnight cultures were diluted 1:250 with 25 ml of BHI broth in 250 ml flasks and incubated at 37 °C, with shaking (200 rpm). Cells were grown until they reached the OD600 ~ 0.3. Five hundred microliters sample was taken from the flasks and transferred to an 8-well plate for treatments. […] The supernatant was exchanged with phosphate buffered saline supplemented with […] HPF with incubation in the dark at room temperature for 15 min and re-pelleted by centrifugation at 10,000 rpm. The supernatant was removed and replaced with 1 × PBS for fluorimetry measurements.
# [20] = system: K. pneumoniae clinical isolate; assay: DPH steady-state fluorimetry, membrane dynamics; format: cell-based, Klebsiella pneumoniae; settings: vancomycin alone; sCur at MIC alone 120 min; 8 µg/ml sCur with 16 µg/ml vancomycin 60 min; untreated 93.44 ± 2.646
# Description: as §5
# [21] = antibiotic with native curcumin (8 µg/ml)
smiles,measurement,setting,value
"O=C(O)c1cn(C2CC2)c2cc(N3CCNCC3)c(F)cc2c1=O [Ciprofloxacin, ciprofloxacin]",MBC,[1]; read-out: MBC,128 µg/mL
same,MBC,[2]; read-out: MBC,256 µg/mL
same,MBC,[3]; read-out: MBC,64 µg/mL
same,MBC,[4]; read-out: MBC,64 µg/mL
same,MIC,"[5]; MDR isolates, antibiotics alone, read-out: MIC",64 µg/mL
same,MIC,[6]; read-out: MIC,< 0.25 µg/mL
same,MBC,"[6]; ATCC35984, read-out: MBC",0.5 µg/mL
same,MIC,[7]; read-out: MIC,0.25 µg/mL
same,MBC,"[7]; ATCC25922, read-out: MBC",0.5 µg/mL
same,MIC,[8]; read-out: MIC,0.5 µg/mL
same,MBC,"[8]; ATCC700603, read-out: MBC",1 µg/mL
same,MIC,[9]; read-out: MIC,0.5 µg/mL
same,MBC,"[9]; ATCC25619, read-out: MBC",1 µg/mL
same,MIC,[10]; read-out: MIC,0.25 µg/mL
same,MBC,"[10]; ATCC29213, read-out: MBC",0.5 µg/mL
"COc1cc(/C=C/C(=O)CC(=O)/C=C/c2ccc(O)c(OC)c2)ccc1O [Curcumin, curcumin]",MIC,[1]; read-out: MIC,512 µg/mL
same,MBC,[1]; read-out: MBC,≥ 1020 µg/mL
same,MIC,[2]; read-out: MIC,≥ 1020 µg/mL
same,MBC,[2]; read-out: MBC,≥ 1020 µg/mL
same,MIC,[3]; read-out: MIC,512 µg/mL
same,MBC,[3]; read-out: MBC,≥ 1020 µg/mL
same,MIC,[4]; read-out: MIC,256 µg/mL
same,MBC,[4]; read-out: MBC,≥ 1020 µg/mL
same,"right shifting of the population, DiSC3-5",Klebsiella pneumoniae [11],35%
same,"right shifting of the population, DPH",Klebsiella pneumoniae [12],significant right shifting
same,MIC,[6]; read-out: MIC,128 µg/mL
same,MBC,"[6]; ATCC35984, read-out: MBC",≥ 1020 µg/mL
same,MIC,[7]; read-out: MIC,256 µg/mL
same,MBC,"[7]; ATCC25922, read-out: MBC",≥ 1020 µg/mL
same,MIC,[8]; read-out: MIC,256 µg/mL
same,MBC,"[8]; ATCC700603, read-out: MBC",≥ 1020 µg/mL
same,MIC,[9]; read-out: MIC,512 µg/mL
same,MBC,"[9]; ATCC25619, read-out: MBC",≥ 1020 µg/mL
same,MIC,[10]; read-out: MIC,128 µg/mL
same,MBC,"[10]; ATCC29213, read-out: MBC",≥ 1020 µg/mL
"C[C@@H](O)[C@H]1C(=O)N2C(C(=O)O)=C(S[C@@H]3CN[C@H](C(=O)N(C)C)C3)[C@H](C)[C@H]12 [Meropenem, meropenem]",MBC,[1]; read-out: MBC,256 µg/mL
same,MBC,[2]; read-out: MBC,256 µg/mL
same,MIC,[3]; read-out: MIC,64 µg/mL
same,modified MIC,[13]; antibiotic with sCur (8 µg/ml),2 µg/mL
same,modified MIC,[14]; antibiotic with sCur (8 µg/ml),4 µg/mL
same,modified MIC,[15]; [21],64 µg/mL
same,modified MIC,[15]; antibiotic with sCur (8 µg/ml),1 µg/mL
same,MIC,[7]; read-out: MIC,0.25 µg/mL
same,MBC,"[7]; ATCC25922, read-out: MBC",1 µg/mL
same,MIC,[8]; read-out: MIC,0.5 µg/mL
same,MBC,"[8]; ATCC700603, read-out: MBC",1 µg/mL
same,MIC,[9]; read-out: MIC,0.5 µg/mL
same,MBC,"[9]; ATCC25619, read-out: MBC",1 µg/mL
"CN[C@H](CC(C)C)C(=O)N[C@H]1C(=O)N[C@@H](CC(N)=O)C(=O)N[C@H]2C(=O)N[C@H]3C(=O)N[C@H](C(=O)N[C@H](C(=O)O)c4cc(O)cc(O)c4-c4cc3ccc4O)[C@H](O)c3ccc(c(Cl)c3)Oc3cc2cc(c3O[C@@H]2O[C@H](CO)[C@@H](O)[C@H](O)[C@H]2O[C@H]2C[C@](C)(N)[C@H](O)[C@H](C)O2)Oc2ccc(cc2Cl)[C@H]1O [Vancomycin, vancomycin]",MBC,[1],≥ 1020 µg/mL
same,MIC,[1],512 µg/mL
same,MBC,[2],≥ 1020 µg/mL
same,MIC,[2],1020 µg/mL
same,MBC,[3],≥ 1020 µg/mL
same,MIC,[3],512 µg/mL
same,MBC,[4],2 µg/mL
same,MIC,[4],1 µg/mL
same,"cell population that took up DCFDA, ROS generation (gate M3)",Klebsiella pneumoniae [16],38.6%
same,MIC,[17]; read-out: Modified MIC,1 µg/mL
same,MIC,[17]; read-out: modified MIC,0.25 µg/mL
same,DiSC3-5 fluorescence intensity,[18],32.07 ± 5.224 a.u.
same,MIC,[5],512 µg/mL
same,"right shifting of the population, DiSC3-5",Klebsiella pneumoniae [11],0.6%
same,"right shifting of the population, DPH",Klebsiella pneumoniae [12],mild right shifting
same,modified MIC,[13]; [21],512 µg/mL
same,modified MIC,[13]; antibiotic with sCur (8 µg/ml),16 µg/mL
same,modified MIC,[14]; [21],1024 µg/mL
same,modified MIC,[14]; antibiotic with sCur (8 µg/ml),16 µg/mL
same,modified MIC,[15]; [21],512 µg/mL
same,modified MIC,[15]; antibiotic with sCur (8 µg/ml),8 µg/mL
same,DPH fluorescence intensity,MRSA clinical isolate,84.24 ± 1.875 a.u.
same,MBC,[6]; ATCC35984,1 µg/mL
same,MIC,[6],0.25 µg/mL
same,MBC,[7]; ATCC25922,≥ 1020 µg/mL
same,MIC,[7],256 µg/mL
same,MBC,[8]; ATCC700603,≥ 1020 µg/mL
same,MIC,[8],256 µg/mL
same,MBC,[9]; ATCC25619,≥ 1020 µg/mL
same,MIC,[9],1020 µg/mL
same,MBC,[10]; ATCC29213,2 µg/mL
same,MIC,[10],0.5 µg/mL
same,"HPF fluorescence, OH radical production",[19],fair increase in the fluorescence
same,DPH fluorescence intensity,[20],89.21 ± 2.614 a.u.
